Laboratory results: patent US11459624B2, “Compositions and methods for determining resistance to inhibitors of virus entry using recombinant virus assays” (MONOGRAM BIOSCIENCES, INC., priority 2004, dated 2022)

System: HIV-1
Assay: Phenotypic HIV-1 entry inhibitor susceptibility assay (pseudotyped virus, single-round infection, luciferase readout)
Assay type: cell-based
Settings: for IC50 for inhibition of entry, resistant HIV relative to sensitive reference virus / maximum percentage of inhibition, resistant viruses relative to sensitive viruses: log-sigmoid inhibition curves; for IC50 for inhibition of entry, resistant HIV relative to sensitive reference virus / completeness of inhibition of entry of resistant virus at high inhibitor concentrations / maximum percentage of inhibition, resistant viruses relative to sensitive viruses: viruses resistant to the inhibitor; for IC50 for inhibition of entry, resistant HIV relative to sensitive reference virus: FIG. 5; for maximum percentage of inhibition, resistant viruses relative to sensitive viruses: FIG. 6, FIG. 8
Method: Susceptibility assays for HIV-1 entry inhibitors were performed using packaging host cells consisting of the human embryonic kidney cell line 293 (Cell Culture Facility, UC San Francisco, SF, Calif.) and target host cells consisting of a human osteosarcoma (HOS) cell line expressing CD4 (HT4) plus CCR5, and CXCR4, or astrocytoma (U-87) cell lines expressing either CD4 and CCR5 or CD4 and CXCR4.
Drug susceptibility testing was performed using pHIVenv and pHIVluc or pHIVlucΔU3. Pseudotyped HIV particles containing envelope proteins encoded by the subject derived segment were produced by transfecting a packaging host cell (HEK 293) with resistance test vector DNA. Virus particles were collected about 48 h after transfection and were used to infect target cells (HT4/CCR5/CXCR4, or U-87/CD4/CXCR4, or U-87/CD4/CCR5) that express the HIV receptor (i.e. CD4) and co-receptors (i.e. CXCR4, CCR5). After infection (~72 h) the target cells are lysed and luciferase activity is measured. HIV must complete one round of replication to successfully infect the target host cell and produce luciferase activity. The amount of luciferase activity detected in the infected cells is used as a direct measure of “infectivity” (FIGS. 1 and 2). […] Drug susceptibility is assessed by comparing the infectivity in the absence of drug to infectivity in the presence of drug.
Packaging host cells were seeded in 10-cm-diameter dishes and were transfected one day after plating with pHIVenv and pHIVluc or pHIVlucΔU3. Transfections were performed using a calcium-phosphate co-precipitation procedure. The cell culture media containing the DNA precipitate was replaced with fresh medium, from one to 24 hours, after transfection. Cell culture media containing viral particles was typically harvested 2 days after transfection and was passed through a […] filter. Before infection, target cells were plated in cell culture media. […] Typically, 3 days after infection target cells were assayed for luciferase activity using the Steady-Glo reagent (Promega) and a luminometer.
However, any such susceptibility assay known by one of skill in the art can in principle be used in the methods for determining phenotypic drug susceptibility. Drug susceptibility can be plotted, for example, as percent inhibition versus log10 drug concentration and defined based on, for example, the IC50 and percent inhibition at the highest drug concentration. […] In this example, the phenotypic drug susceptibility assay of Example 1 was used to determine a log-sigmoid curve showing the resistance of mutant HIV to SCH-C, TNX-355, T-20, and AMD-3100.

enfuvirtide was tested, and the “susceptibility of viruses with drug resistance mutations in the gp41 envelope protein” value (cells expressing CD4, CCR5 and CXCR4, isogenic viruses with one or two gp41 mutations, FIG. 4B) was “reduced susceptibility”, the “IC50 for inhibition of entry, resistant HIV relative to sensitive reference virus” value was “increased IC50” and the “completeness of inhibition of entry of resistant virus at high inhibitor concentrations” value was “can be completely inhibited”.

With “TNX-355: HIV entry inhibitor (Tanox Inc.), non-competitive” the “maximum percentage of inhibition, resistant viruses relative to sensitive viruses” value was “reduced maximum percentage of inhibition”.

c1cc(CN2CCCNCCNCCCNCC2)ccc1CN1CCCNCCNCCCNCC1 [AMD-3100] was tested, and the “IC50 for inhibition of entry, resistant HIV relative to sensitive reference virus” value was “increased IC50” and the “completeness of inhibition of entry of resistant virus at high inhibitor concentrations” value was “can be completely inhibited”.

For CCO/N=C(\c1ccc(Br)cc1)C1CCN(C2(C)CCN(C(=O)c3c(C)cc[n+]([O-])c3C)CC2)CC1 [SCH-C], the “maximum percentage of inhibition, resistant viruses relative to sensitive viruses” value was “reduced maximum percentage of inhibition”.
